Measured values as given in patent publication US20230383292A1, “TARGETING XIST AND RNA METHYLATION FOR X REACTIVATION THERAPY” (The General Hospital Corporation, priority 2020, published 2023).

Tested on: human XIST transcript
Assay: XIST knock down by XIST ASOs (Table 1)
Format: cell-based
Design: ASO conc at max KD: unit not given here
Details: for % Max KD: XIST knock down, cells treated for 72 hrs with XIST ASO; for ASO conc at max KD: concentration of XIST ASO giving max KD, 72 hrs
Description: The methods include administering an inhibitor of an XIST RNA itself, e.g., an inhibitory nucleic acid targeting XIST RNA. Although in typical usage XIST refers to the human sequence and XIST to the mouse sequence, in the present application the terms are used interchangeably. The human XIST sequence is available in the ensemble database at ENSG00000229807; it is present on Chromosome X at 73,820,651-73,852,753 reverse strand (Human GRCh38.p2). The sequences of exons 1-6 are shown in SEQ ID NOs:73-79 (see FIG. 2); XIST exons correspond to 601-11972 (exon 1); 15851-15914 (exon 2); 19593-20116 (exon 3); 21957-21984 (exon 4); 22080-22288 (exon 5); and 23887-33304 (exon 6). […] The inhibitory nucleic acid targeting XIST RNA can be any inhibitory nucleic acid as described herein, and can include modifications described herein or known in the art. In some embodiments, the inhibitory nucleic acid is an antisense oligonucleotide (ASO) that targets a sequence in XIST RNA, e.g., a sequence within an XIST exon as shown in SEQ ID NO:1-45 or within the RNA sequence as set forth in NR_001564.2, preferably wherein the ASO comprises a sequence as shown in Table 1. In some embodiments, the inhibitory nucleic includes at least one locked nucleotide, e.g., is a locked nucleic acid (LNA). Table 1 provides a list of ASOs that have more than 80% XIST knock down when cells are treated for 72 hrs with the below XIST ASOs.

Substance | % Max KD [%] | ASO conc at max KD
ASO 1C: XIST antisense oligonucleotide TGAGGCACCAATACAGAGGA, SEQ ID NO 18 (listed as DNA, chemistry not given here) | 95 | 20
ASO 1D: XIST antisense oligonucleotide TCAGACTGTATGACTGACAT, SEQ ID NO 8 (listed as DNA, chemistry not given here) | 98 | 20
ASO 1F: XIST antisense oligonucleotide TTTAGCTCATGCAATGCACA, SEQ ID NO 9 (listed as DNA, chemistry not given here) | 98 | 20
ASO 1R: XIST antisense oligonucleotide CTGTGACTACAGAAGCAATG, SEQ ID NO 22 (listed as DNA, chemistry not given here) | 94 | 100
ASO 6P: XIST antisense oligonucleotide CCAGAGTGGTAGAAGAGATA, SEQ ID NO 27 (listed as DNA, chemistry not given here) | 92 | 20
ASO 1W: XIST antisense oligonucleotide CTTAAGTAGTAGGTACTTCC, SEQ ID NO 3 (listed as DNA, chemistry not given here) | 99 | 20
ASO 1P: XIST antisense oligonucleotide TAGCTCATGCAATGCACATG, SEQ ID NO 2 (listed as DNA, chemistry not given here) | 99 | 100
ASO 6I: XIST antisense oligonucleotide GTTCTGCACCTATCAGGCAG, SEQ ID NO 25 (listed as DNA, chemistry not given here) | 93 | 20
ASO 6A: XIST antisense oligonucleotide TATGGCCCACAGTCTAAAGT, SEQ ID NO 1 (listed as DNA, chemistry not given here) | 99.3 | 20
ASO 6C: XIST antisense oligonucleotide TTGGCCTTGTGTCACAAGTC, SEQ ID NO 12 (listed as DNA, chemistry not given here) | 97 | 20
ASO 1E: XIST antisense oligonucleotide GAATTCCTCTTCTGCCACCT, SEQ ID NO 28 (listed as DNA, chemistry not given here) | 91 | 20
ASO 6U: XIST antisense oligonucleotide CTTTGTCCCAGGCACAGTCA, SEQ ID NO 13 (listed as DNA, chemistry not given here) | 97 | 20
ASO 1V: XIST antisense oligonucleotide AGGACCTTATTCACATGGAA, SEQ ID NO 10 (listed as DNA, chemistry not given here) | 98 | 20
ASO 1T: XIST antisense oligonucleotide AGGATGAACCATGTGGTGAT, SEQ ID NO 24 (listed as DNA, chemistry not given here) | 93 | 20
ASO 6Q: XIST antisense oligonucleotide TCAGAAGTCTGGCACATCTG, SEQ ID NO 5 (listed as DNA, chemistry not given here) | 99 | 100
ASO 5A: XIST antisense oligonucleotide CAAATTTCTTGGACCTGCTG, SEQ ID NO 16 (listed as DNA, chemistry not given here) | 96 | 20
ASO 1A: XIST antisense oligonucleotide TAGTTAGCACTCCTGCTGCT, SEQ ID NO 7 (listed as DNA, chemistry not given here) | 98 | 20
ASO 6R: XIST antisense oligonucleotide GGCCTTGTGTCACAAGTCTC, SEQ ID NO 6 (listed as DNA, chemistry not given here) | 99 | 100

Substance | % Max KD [%] | ASO conc at max KD
ASO 1G: XIST antisense oligonucleotide CTGAGATCACAGACAAATGG, SEQ ID NO 19 (listed as DNA, chemistry not given here) | 95 | 20
ASO 6S: XIST antisense oligonucleotide CTGAGGATTGTTTCTGAAAG, SEQ ID NO 21 (listed as DNA, chemistry not given here) | 95 | 100
ASO 6D: XIST antisense oligonucleotide TCAAGACTGGCCCAGGCATA, SEQ ID NO 17 (listed as DNA, chemistry not given here) | 96 | 20
ASO 5P: XIST antisense oligonucleotide GTTCAAATTTCTTGGACCTG, SEQ ID NO 34 (listed as DNA, chemistry not given here) | 88 | 20
ASO 6B: XIST antisense oligonucleotide AGAAGTCTGGCACATCTGTG, SEQ ID NO 11 (listed as DNA, chemistry not given here) | 98 | 100
ASO 4B: XIST antisense oligonucleotide CCAGGAAAGTATCTTGACAG, SEQ ID NO 32 (listed as DNA, chemistry not given here) | 88 | 100
ASO 6T: XIST antisense oligonucleotide CCCACAGAAAGTAATCACCA, SEQ ID NO 31 (listed as DNA, chemistry not given here) | 89 | 20
ASO 1U: XIST antisense oligonucleotide CTTACAACTGTGCACCTTGA, SEQ ID NO 15 (listed as DNA, chemistry not given here) | 96 | 100
ASO 1S: XIST antisense oligonucleotide CAGAAACCCAAGTCTAATTG, SEQ ID NO 23 (listed as DNA, chemistry not given here) | 94 | 20
ASO 4P: XIST antisense oligonucleotide GTTGTTGCCCAGTGGTAGTG, SEQ ID NO 33 (listed as DNA, chemistry not given here) | 88 | 100
ASO 5Q: XIST antisense oligonucleotide CAGATAGGAACAATGAAGAG, SEQ ID NO 30 (listed as DNA, chemistry not given here) | 89 | 100
ASO 3P: XIST antisense oligonucleotide TAGATTAGCTGGAGCTTGGC, SEQ ID NO 4 (listed as DNA, chemistry not given here) | 99 | 100
ASO 5B: XIST antisense oligonucleotide TTTCTTGGACCTGCTGAAGA, SEQ ID NO 20 (listed as DNA, chemistry not given here) | 95 | 20
ASO 6E: XIST antisense oligonucleotide AGTTCAGGCTGTCCCCTTGG, SEQ ID NO 26 (LNA gapmer with DNA gap, wing lengths and linkages not given here) | 92 | 20
ASO 1X: XIST antisense oligonucleotide ACTCAGCAGCAATGGCAAAG, SEQ ID NO 29 (listed as DNA, chemistry not given here) | 89 | 100
ASO 4A: XIST antisense oligonucleotide GGTTGTTGCCCAGTGGTAGT, SEQ ID NO 35 (listed as DNA, chemistry not given here) | 84 | 20
ASO 1B: XIST antisense oligonucleotide GCCTGCCATATTGTCCCTGC, SEQ ID NO 14 (listed as DNA, chemistry not given here) | 96 | 20
